# Data taken from BindingDB's records for doi:10.1021/jm0003440 (Merck Frosst Centre For Therapeutic Research, 2001).
# Assay: Inhibitory activity tested against Human Cathepsin K receptor using bone resorption assay
structure (smiles),measurement,value
N#CN1CCC(NC(=O)OCc2ccccc2)C1 (stereo unspecified) [(1-Cyano-pyrrolidin-3-yl)-carbamic acid benzyl ester],IC50,1.41 µM
